Publication PMC11228983, “Rapid Protein–Ligand Affinity Determination by Photoinduced Hyperpolarized NMR” (Journal of the American Chemical Society, 2024)
Residues, ends and D or L forms follow the SMILES beside them.

T1: PDZ2 domain of human tyrosine phosphatase 1E (hPTP1E) (Homo sapiens, UniProt Q12923)
T1 construct: the constructs used for the PDZ2 domain of human tyrosine phosphatase 1E; polyhistidine (N); made in house; host or cells: Escherichia coli BL21 (DE3)
T1 sequence (Q12923 1368-1452 limits assumed): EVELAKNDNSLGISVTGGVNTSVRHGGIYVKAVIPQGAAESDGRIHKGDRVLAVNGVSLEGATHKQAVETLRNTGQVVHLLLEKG

T2: WEQVSAV
T2 chain: WEQVSAV

T3: ENEQVSAV (RA-GEF2) (Homo sapiens)
T3 chain: ENEQVSAV

T4: QVSAV (RA-GEF2) (Homo sapiens)
T4 chain: QVSAV

T5: WVSAV
T5 chain: WVSAV

T6: WQVSAV
T6 chain: WQVSAV


What was measured:
[1] = target: T1, PDZ2 domain of human tyrosine phosphatase 1E (hPTP1E); assay: CIDNP-KD ligand titration (photo-CIDNP hyperpolarized NMR); type: binding
Source text: For both STD-NMR and CIDNP-KD, there is an initial buildup of the signal at the start of the irradiation. However, the mechanisms underlying it and, thus, the kinetics of the signal buildup are different between the techniques. In STD-NMR, the saturation of L starts to build up as soon as the irradiation of the protein begins because preformed PL complexes can be immediately saturated. However, in CIDNP-KD, the preformed PL complexes are not CIDNP-active. Therefore, a free L must first be hyperpolarized and then bind to P before any signal reduction is observable. Therefore, we will use the AF(ti) corresponding to the steady state in contrast to STD-NMR, where one needs to measure the initial growth of the amplification factor to account for the ligand rebinding effects, which are significant at low ligand-to-protein ratios;[7] there is no need for an initial amplification factor in CIDNP-KD. During the photo-CIDNP process, only 0.1–1% of the ligand becomes hyperpolarized such that even at low ligand-to-protein ratios, the rebinding of L* is not a significant factor. Therefore, one needs to only assess the time to reach a steady-state amplification factor AFss, whose value is measured at a series of ligand concentrations, and then fit eq 5 to determine the proportionality factor α and the dissociation constant KD (Figure 1D,E) [drawing 5] 5 Affinities are obtained with the CIDNP-KD method as follows. The ligand of interest and the photosensitizer are prepared as titration series in the presence and absence of the target protein (Figure 1A) and measured with the Cryolight setup (Figure 1B,[23]), which allows the automatization with an autosampler. The photo-CIDNP signal builds up within 2 s (Figure 1C). It allows us to measure the irradiation time-dependent photo-CIDNP buildup of the ligand NMR signal in the presence and absence of protein in under a minute per sample (Figure S1A). These signal intensities are converted into AF(ti) with eq 4 (Figure S1B), giving an individual titration data point in the corresponding ligand titration curve (Figure S1C). The experiment is repeated at different ligand concentrations to build the titration curve fitted using eq 5, yielding the KD (Figure 1E,F). The entire measurement of all the photo-CIDNP spectra of 7 titration points (14 measurements) takes about 7 min in measurement time, plus the time to exchange the samples with the autosampler (Figure 1D).
Figure 2 presents the CIDNP-KD titration curves for each peptide with 20 μM PDZ2 in (A) and 10 μM PDZ2 in (B to D). The curves were obtained using the workflow described in the introduction for each proton of tryptophan that has sufficient photo-CIDNP signal enhancement and signal reduction upon binding (Figure S2).
Figure 2 Affinity determination of different peptides binding to the hPDZ2 domain by CIDNP-KD within a few minutes. Ligand titration of (A) WSAV, (B) WVSAV, (C) WQVSAV, and (D) WEQVSAV against the human tyrosine phosphatase PDZ2 domain (20 μM for WSAV, 10 μM for others) as described in Figures 1 and S1. The plots contain the titration curves for all protons of the tryptophan residue that undergo signal enhancement through photo-CIDNP and display sufficient quenching upon protein binding. The individual data points are measured with single-scan experiments with laser irradiation durations where t > tss: (A) 1500 ms, (B) 2000 ms, (C) 2000 ms, and (D) 2000 ms.
Expression and purification were carried out as in previously reported procedures. In short, expression in Escherichia coli cells (BL21 (DE3)) and purification via Ni-NTA chromatography as the constructs used for the PDZ2 domain of human tyrosine phosphatase 1E and human PIN1 both contained N-terminal polyhistidine tags. Both protein constructs were measured in an NMR buffer consisting of 50 mM NaCl, 20 mM KPO4, and 10% D2O at pH 6.8. For the control [^1H, ^15N]-HSQC experiments, the PDZ2 domain was expressed in ^15N-enriched minimal medium.[34],[43] […]

[2] = target: T1, PDZ2 domain of human tyrosine phosphatase 1E (hPTP1E); assay: 2D [1H,15N]-HSQC chemical shift perturbation titration; type: binding; details: 30 μM 15N PDZ2, pH 6.8, 298 K
Experimental: We compared the affinities of the peptides obtained via CIDNP-KD with the state-of-the-art 2D [^1H, ^15N]-HSQC titration experiments measured with 30 μM PDZ2 (Figure S3).
Expression and purification were carried out as in previously reported procedures. In short, expression in Escherichia coli cells (BL21 (DE3)) and purification via Ni-NTA chromatography as the constructs used for the PDZ2 domain of human tyrosine phosphatase 1E and human PIN1 both contained N-terminal polyhistidine tags. Both protein constructs were measured in an NMR buffer consisting of 50 mM NaCl, 20 mM KPO4, and 10% D2O at pH 6.8. For the control [^1H, ^15N]-HSQC experiments, the PDZ2 domain was expressed in ^15N-enriched minimal medium.[34],[43]
All photo-CIDNP and STD-NMR experiments were recorded at 298 K on a Bruker Avance III HD 600 MHz spectrometer equipped with a cryoprobe. The [^15N, ^1H] – HSQC titration experiments of the PDZ2 domain were performed also at 298 K on another Bruker Avance IIII HD 600 MHz spectrometer equipped with a cryoprobe and SampleJet.
Peak picking was performed with the maximal peak picking tool of Mnova software. Plotting, fitting, and data analysis was done in RStudio with the workflow described above. The [^15N, ^1H]-HSQC reference affinities were analyzed with CCPNMR3.1.[62] The backbone assignment was taken from BMRB 34688.
Fig. S3: 2D [15N, 1H]-HSQC titration of peptides to hPDZ2 domain. The 2D [ 15N, 1H]-
HSQC spectra of the titration series in presence of 30 µM hPDZ2 domain and the
corresponding observed chemical shift difference of A74 plotted versus the peptide
(1 picture or pasted object on this page, not shown here)

WEQVSAV [3] = target: T2, WEQVSAV; assay: CIDNP-KD NMR (H6)
ENEQVSAV (RA-GEF2) [4] = target: T3, ENEQVSAV (RA-GEF2); assay: competition CIDNP-KD NMR (H4)
QVSAV (RA-GEF2) [5] = target: T4, QVSAV (RA-GEF2); assay: competition CIDNP-KD NMR (Hβ)
ENEQVSAV (RA-GEF2) [6] = target: T3, ENEQVSAV (RA-GEF2); assay: competition CIDNP-KD NMR (Hβ)
WVSAV [7] = target: T5, WVSAV; assay: CIDNP-KD NMR (H4)
WQVSAV [8] = target: T6, WQVSAV; assay: CIDNP-KD NMR (H4)
WVSAV [9] = target: T5, WVSAV; assay: CIDNP-KD NMR (Hβ)
WQVSAV [10] = target: T6, WQVSAV; assay: CIDNP-KD NMR (Hβ)
WEQVSAV [11] = target: T2, WEQVSAV; assay: CIDNP-KD NMR (Hβ)
WVSAV [12] = target: T5, WVSAV; assay: CIDNP-KD NMR (H2)
WQVSAV [13] = target: T6, WQVSAV; assay: CIDNP-KD NMR (H2)
WEQVSAV [14] = target: T2, WEQVSAV; assay: CIDNP-KD NMR (H2)
WVSAV [15] = target: T5, WVSAV; assay: [1H,15N]-HSQC titration (A74)
QVSAV (RA-GEF2) [16] = target: T4, QVSAV (RA-GEF2); assay: [1H,15N]-HSQC titration (A74)
WQVSAV [17] = target: T6, WQVSAV; assay: [1H,15N]-HSQC titration (A74)
ENEQVSAV (RA-GEF2) [18] = target: T3, ENEQVSAV (RA-GEF2); assay: [1H,15N]-HSQC titration (A74)
WEQVSAV [19] = target: T2, WEQVSAV; assay: [1H,15N]-HSQC titration (A74)
[20] = range over Hβ/H2/H4/H6 fits, read-out: CIDNP-KD affinity, range over the observed tryptophan protons
[21] = tryptophan H2 signal, 20 μM PDZ2 for WSAV, 10 μM for others, pH 6.8, 298 K, H2 overlaps H6 for WVSAV and WQVSAV, read-out: CIDNP-KD, H2
[22] = tryptophan H4 signal, 20 μM PDZ2 for WSAV, 10 μM for others, pH 6.8, 298 K, read-out: CIDNP-KD, H4
[23] = tryptophan Hβ signal, 20 μM PDZ2 for WSAV, 10 μM for others, 25 μM fluorescein, 450 nm, 50 mM NaCl, 20 mM KPO4, 10% D2O, pH 6.8, 298 K, single-scan, steady state, fit ± error, read-out: CIDNP-KD, Hβ
[24] = 15N–1H moiety of A74, read-out: [1H,15N]-HSQC–CSP KD, NH of A74
[25] = range over residues, read-out: [1H,15N]-HSQC–CSP KD range of all residues showing chemical shift perturbation
[26] = tryptophan H6 signal, 20 μM PDZ2 for WSAV, 10 μM for others, pH 6.8, 298 K, read-out: CIDNP-KD, H6

Molecule	Kd [1, 20] [µM]	Kd [1, 21] [µM]	Kd [1, 22] [µM]	Kd [1, 23] [µM]	Kd [2, 24] [µM]	Kd [2, 25] [µM]	Kd [1, 26] [µM]	also measured
CC(C)[C@H](NC(=O)[C@H](C)NC(=O)[C@H](CO)NC(=O)[C@@H](NC(=O)[C@H](CCC(N)=O)NC(=O)[C@@H](N)Cc1c[nH]c2ccccc12)C(C)C)C(=O)O [WQVSAV] (H-WQVSAV-OH)	19 to 200	74 ± 14	230 ± 30	27 ± 16	68 ± 11	20 to 280	–	–
CC(C)[C@H](NC(=O)[C@H](C)NC(=O)[C@H](CO)NC(=O)[C@@H](NC(=O)[C@@H](N)Cc1c[nH]c2ccccc12)C(C)C)C(=O)O [WVSAV] (H-WVSAV-OH)	80 to 330	80 ± 60	330 ± 80	170 ± 40	108 ± 10	50 to 400	–	–
CC(C)[C@H](NC(=O)[C@H](C)NC(=O)[C@H](CO)NC(=O)[C@@H](N)Cc1c[nH]c2ccccc12)C(=O)O [WSAV] (H-WSAV-OH)	3100 to 3300	3300 ± 2300	3100 ± 1500	–	1320 ± 160	200 to 4000	3100 ± 3200	–
CC(C)[C@H](NC(=O)[C@H](C)NC(=O)[C@H](CO)NC(=O)[C@@H](NC(=O)[C@H](CCC(N)=O)NC(=O)[C@H](CCC(=O)O)NC(=O)[C@@H](N)Cc1c[nH]c2ccccc12)C(C)C)C(=O)O [WEQVSAV] (H-WEQVSAV-OH)	55 to 82	63 ± 28	63 ± 16	82 ± 33	16 ± 5	10 to 70	55 ± 17	–
PDZ2 domain of human tyrosine phosphatase 1E (hPTP1E) PDZ2 (protein) DIFEVELAKNDNSLGISVTGGVNTSVRHGGIYVKAVIPQGAAESDGRIHKGDRVLAVNGVSLEGATHKQAVETLRNTGQVVHLLLEKGQSP	–	–	–	–	–	–	–	Kd (WEQVSAV [3]): 55 µM; Kd (ENEQVSAV (RA-GEF2) [4]): 91 µM; Kd (QVSAV (RA-GEF2) [5]): 580 µM; Kd (ENEQVSAV (RA-GEF2) [6]): 35 µM; Kd (WVSAV [7]): 330 µM; Kd (WQVSAV [8]): 230 µM; Kd (WVSAV [9]): 170 µM; Kd (WQVSAV [10]): 27 µM; Kd (WEQVSAV [11]): 82 µM; Kd (WVSAV [12]): 80 µM; Kd (WQVSAV [13]): 74 µM; Kd (WEQVSAV [14]): 63 µM; Kd (WVSAV [15]): 108 µM; Kd (QVSAV (RA-GEF2) [16]): 155 µM; Kd (WQVSAV [17]): 68 µM; Kd (ENEQVSAV (RA-GEF2) [18]): 17 µM; Kd (WEQVSAV [19]): 16 µM
